# Source: ChEMBL document CHEMBL1201862, “PubChem BioAssay data set” (2004)
# Counter-ions that a name gives are not always drawn.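 Growth conditions: 96-well plates. Treatment: test compound, 48 hours, 5 concentrations. Analysis: linear interpolation between bracketing concentrations; unreached endpoints set to highest concentration. GI50 marks 50% less growth.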 Calls of active or inactive are those of the source. Rule as the data show it: active = GI50 up to about 1.1 µM and inactive = higher.
# Legend:
# Experiment in all cases: DTP human tumour cell line panel, 48 h
# [1] = test system: Malme-3M
# [2] = test system: SF-268
# [3] = test system: DU-145
# [4] = test system: U-251
# [5] = test system: NCI-H460
# [6] = test system: MDA-N
# [7] = test system: HOP-62
# [8] = test system: OVCAR-3
# [9] = test system: OVCAR-5
# [10] = test system: SF-295
# [11] = test system: NCI-H522
# [12] = test system: UO-31
# [13] = test system: HOP-92
# [14] = test system: Hs-578T
# [15] = test system: IGROV-1
# [16] = test system: M14
# [17] = test system: SK-MEL-2
# [18] = test system: SNB-75
# [19] = test system: EKVX
# [20] = test system: T47D
SMILES,GI50 [1],GI50 [2],GI50 [3],GI50 [4],GI50 [5],GI50 [6],GI50 [7],GI50 [8],GI50 [9],GI50 [10],GI50 [11],GI50 [12],GI50 [13],GI50 [14],GI50 [15],GI50 [16],GI50 [17],GI50 [18],GI50 [19],GI50 [20]
Nc1ncnc2c1ncn2C1OC(CO)C(O)C(O)C1O (stereo not given),> 100 µM (inactive),> 100 µM (inactive),> 100 µM (inactive),> 100 µM (inactive),> 100 µM (inactive),> 100 µM (inactive),> 100 µM (inactive),> 100 µM (inactive),> 100 µM (inactive),> 100 µM (inactive),> 100 µM (inactive),> 100 µM (inactive),> 100 µM (inactive),> 100 µM (inactive),> 100 µM (inactive),> 100 µM (inactive),> 100 µM (inactive),> 100 µM (inactive),> 100 µM (inactive),
CC(NC(=O)c1ccc(OP(=O)(OCc2ccc([N+](=O)[O-])o2)N(C)CCCCCl)cc1)c1ccc(OCC2CCCCC2)c(C(N)=O)c1 (stereo not given),2.52 µM (inactive),2.67 µM (inactive),4.27 µM (inactive),4.29 µM (inactive),3.27 µM (inactive),2.97 µM (inactive),7.05 µM (inactive),2.57 µM (inactive),15.2 µM (inactive),9.51 µM (inactive),2.38 µM (inactive),1.83 µM (inactive),1.19 µM (inactive),,2.75 µM (inactive),3.67 µM (inactive),3.05 µM (inactive),4.56 µM (inactive),14.3 µM (inactive),2.06 µM (inactive)
CCCCCCCCCCCCCCCCOP(=O)([O-])OCC[N+](C)(C)C1CC(C)(C)N(O)C(C)(C)C1,> 100 µM (inactive),> 100 µM (inactive),> 100 µM (inactive),> 100 µM (inactive),> 100 µM (inactive),,> 100 µM (inactive),> 100 µM (inactive),> 100 µM (inactive),> 100 µM (inactive),> 100 µM (inactive),> 100 µM (inactive),> 100 µM (inactive),> 100 µM (inactive),,> 100 µM (inactive),> 100 µM (inactive),> 100 µM (inactive),> 100 µM (inactive),> 100 µM (inactive)
CC1CCOc2ccc(cc2)/C=N\c2ccc(cc2)CCc2ccc(cc2)/N=C\c2ccc(cc2)OCC1,> 100 µM (inactive),> 100 µM (inactive),> 100 µM (inactive),> 100 µM (inactive),> 100 µM (inactive),> 100 µM (inactive),18.2 µM (inactive),> 100 µM (inactive),> 100 µM (inactive),70.3 µM (inactive),> 100 µM (inactive),> 100 µM (inactive),60.5 µM (inactive),> 100 µM (inactive),> 100 µM (inactive),> 100 µM (inactive),> 100 µM (inactive),24.1 µM (inactive),> 100 µM (inactive),
C/C(=N/NC(=S)N(C)CCc1ccccn1)c1cnccn1,< 0.01 µM (active),< 0.01 µM (active),0.378 µM (active),< 0.01 µM (active),0.047 µM (active),0.828 µM (active),< 0.0246 µM (active),< 0.01 µM (active),0.516 µM (active),0.177 µM (active),< 0.01 µM (active),< 0.0182 µM (active),3.35 µM (inactive),2.63 µM (inactive),< 0.01 µM (active),< 0.01 µM (active),4.78 µM (inactive),4.19 µM (inactive),< 0.01 µM (active),
CN(C)S(=O)(=O)/N=C/c1cccc(/C=N/S(=O)(=O)N(C)C)c1,,61.5 µM (inactive),> 100 µM (inactive),> 100 µM (inactive),> 100 µM (inactive),31 µM (inactive),> 100 µM (inactive),> 100 µM (inactive),> 100 µM (inactive),0.728 µM (active),,> 100 µM (inactive),32.1 µM (inactive),,,> 100 µM (inactive),,22.9 µM (inactive),64.9 µM (inactive),> 100 µM (inactive)
CSc1nc(NC2CC2)c2c(n1)Sc1nc3ccccc3n1N=C2,16.7 µM (inactive),17.1 µM (inactive),23.5 µM (inactive),20 µM (inactive),25.1 µM (inactive),40.2 µM (inactive),16.3 µM (inactive),17.3 µM (inactive),37.2 µM (inactive),,16.9 µM (inactive),16.5 µM (inactive),21 µM (inactive),0.9 µM (active),42.6 µM (inactive),39.5 µM (inactive),30.3 µM (inactive),,24.2 µM (inactive),
Oc1ccc([I+]c2ccccc2)cc1O,28.8 µM (inactive),42.8 µM (inactive),57.8 µM (inactive),17.4 µM (inactive),23.3 µM (inactive),35.3 µM (inactive),34.2 µM (inactive),28.1 µM (inactive),59.6 µM (inactive),73.8 µM (inactive),17.8 µM (inactive),2.51 µM (inactive),0.0583 µM (active),48.6 µM (inactive),29.7 µM (inactive),,,95.1 µM (inactive),53.3 µM (inactive),
CN(C)CCC=C1c2ccccc2C=Cc2ccccc21 [CYCLOBENZAPRINE HYDROCHLORIDE],16.9 µM (inactive),15.8 µM (inactive),18 µM (inactive),16.3 µM (inactive),15.4 µM (inactive),,16.5 µM (inactive),15.5 µM (inactive),15 µM (inactive),17.2 µM (inactive),17.9 µM (inactive),15.8 µM (inactive),15.6 µM (inactive),18.8 µM (inactive),16.7 µM (inactive),15.8 µM (inactive),16.3 µM (inactive),14.7 µM (inactive),10.9 µM (inactive),19.5 µM (inactive)
CN(/N=C/c1ccccn1)C1=NCCCN1,> 100 µM (inactive),> 100 µM (inactive),,> 100 µM (inactive),> 100 µM (inactive),> 100 µM (inactive),> 100 µM (inactive),> 100 µM (inactive),> 100 µM (inactive),> 100 µM (inactive),> 100 µM (inactive),> 100 µM (inactive),> 100 µM (inactive),> 100 µM (inactive),> 100 µM (inactive),> 100 µM (inactive),> 100 µM (inactive),> 100 µM (inactive),> 100 µM (inactive),> 100 µM (inactive)
Clc1cc(OCc2nn3c(Cc4ccccc4)nnc3s2)ccc1OCc1nn2c(Cc3ccccc3)nnc2s1,37.5 µM (inactive),29.8 µM (inactive),29.6 µM (inactive),21.6 µM (inactive),65.8 µM (inactive),,31.8 µM (inactive),29.9 µM (inactive),51.5 µM (inactive),19.5 µM (inactive),50.1 µM (inactive),39.4 µM (inactive),17.3 µM (inactive),48.9 µM (inactive),30.6 µM (inactive),87.7 µM (inactive),> 100 µM (inactive),15.6 µM (inactive),17.1 µM (inactive),20.9 µM (inactive)
